Consider three molecules from PMC4929455 (2016).

The term ΔTm denotes the change in melting temperature against a reference sample.

Where a SMILES comes first, the peptide text is derived from it.

Assay [1] deals with AP site-containing oligodeoxynucleotide (32P-labeled) (DNA, single strand, natural AP site (from dU by UDG) at 4) TCANCGT. The assay can be described thus: cyanoborohydride trapping, denaturing gel shift. Particulars: 100 mM Hepes-K pH 7.3, 50 mM NaB(CN)H3, 18 °C overnight, covalent.
The test system of assay [2] is T:A (DNA, duplex) TCACCAGTCGTA/TACGACTGGTGA
The assay can be described thus: CD forward titration, ICD at 500 nm. Conditions: 100 mM NaCl; 10 mM sodium phosphate pH 7.0, 1 mM EDTA, 15 °C; apparent; non-specific binding.

The test system of assay [3] is AP site-containing oligodeoxynucleotide (unlabeled) (DNA, single strand, natural AP site (from dU by UDG) at 4) TCANCGT. The assay can be described thus: ESI-MS / CID of reduced covalent complex. Particulars: 100 mM Hepes-K pH 7.3, 50 mM NaB(CN)H3, 37 °C overnight.
The subject of assay [4] is T:THF (DNA, mismatch bulge abasic, tetrahydrofuran (THF) abasic analogue at 6 of strand 1, opposite T) TCACCNGTCGTA/TACGACTGGTGA
The assay can be described thus: CD forward titration, ICD at 500 nm. Particulars: 100 mM NaCl, 10 mM sodium phosphate pH 7.0, 1 mM EDTA, 15 °C, apparent.

Assay [5] concerns dU-containing oligodeoxynucleotide 5'-TCA(dU)CGT-3' (DNA, single strand, 2'-deoxyuridine at 4) TCAUCGT. In words: cyanoborohydride trapping, denaturing gel shift. Particulars: 100 mM Hepes-K pH 7.3, 50 mM NaB(CN)H3, 18 °C overnight; 10 μM C1; covalent trapping only.
The subject of assay [6] is T:A (DNA, duplex) TCACCAGTCGTA/TACGACTGGTGA
In words: UV melting at 260 nm. Particulars: 100 mM NaCl; 10 mM sodium phosphate pH 7.0, 1 mM EDTA; 5 μM DNA, 5 μM C1.

The subject of assay [7] is T:THF (DNA, mismatch bulge abasic, tetrahydrofuran (THF) abasic analogue at 6 of strand 1, opposite T) TCACCNGTCGTA/TACGACTGGTGA
The assay can be described thus: UV melting at 260 nm. Particulars: 100 mM NaCl; 10 mM sodium phosphate pH 7.0, 1 mM EDTA; 5 μM DNA, 5 μM C1.

Assay [8] concerns T:AP (DNA, mismatch bulge abasic, natural apurinic/apyrimidinic site (from dU by UDG) at 6 of strand 1, opposite T) TCACCNGTCGTA/TACGACTGGTGA
The assay can be described thus: CD forward titration, ICD at 500 nm. Conditions: 100 mM NaCl; 10 mM sodium phosphate pH 7.0, 1 mM EDTA, 15 °C; apparent; corrected for non-specific interactions (uncorrected 44 ± 5).

With `CNCC#Cc1c(F)ccc2c1/C(=C/c1[nH]ccc1OC)C(=O)N2`, the binding entry in assay [1] (10 μM C1, ~80% trapped) is “yes”; in assay [3], “yes”; in assay [5] it was “no”. The results for the KD in assay [2] and in assay [4] (corrected for non-specific interactions (uncorrected 29 ± 1)) were 64 ± 3 µM and 22 ± 1 µM, respectively. The values for the thermal shift (ΔTm) in assay [6] and in assay [7] were 1 °C and 6.3 °C, respectively.

Take `COc1cc[nH]c1/C=C1\C(=O)Nc2ccc(F)c(C#CC3(O)CCNCC3)c21`: the KD in assay [2] was determined as 69 ± 14 µM; in assay [4] (corrected for non-specific interactions (uncorrected 35 ± 1)), 28 ± 1 µM; in assay [8], 28 ± 2 µM.

In the case of `NCCCC[C@H](NC(=O)[C@H](CCCCN)NC(=O)[C@H](Cc1c[nH]c2ccccc12)NC(=O)[C@@H](N)CCCCN)C(=O)O` (H-KWKK-OH), in assay [1] (2 mM KWKK), the binding result is on record as “yes”.
